Here are results for 13 compounds from US20080033031A1, “ANTIBIOTIC COMPOUNDS, COMPOSITIONS AND METHODS OF TREATMENT” (priority 2004, published 2008).

The subject of series [1] is S. aureus ATCC 29213. Description: MIC against S. aureus ATCC 29213. The format is cell-based, Staphylococcus aureus. How it is done:
(§1) The microbiological activity of clindamycin analogs was evaluated by measuring the minimum inhibitory concentrations (MIC) of each compound against Staphylococcus aureus (S. aureus) and Propionibacterium acnes (P. acnes). These two microorganisms were selected, as they are commonly known to be the contributing factors for acne. The compounds evaluated were the following: • a. […] Clindamycin sulfone (CSO2) and its salts • d. Clindamycin phosphate • e.

Series [2] has as its system P. acnes ATCC 11827. Description: MIC against P. acnes ATCC 11827. The format is cell-based, Propionibacterium acnes. The protocol:
as §1

A short description of series [3]: Stability studies with benzoyl peroxide in buffer solutions. It counts as physicochemical. The conditions noted are these: 1% analog with 5% BPO, pH 3 buffer, 50° C. How it is done: The concentrations of each of the clindamycin analogs and BPO in the mixtures were 1% (w/w) and 5% (w/w), respectively.
Samples were prepared by dissolving each of the clindamycin analogs and suspending the BPO powder in the buffer solutions of different pHs. Samples were placed either at RT or at 50° C. Samples were pulled at time intervals and tested for the appropriate clindamycin analog and pH.
The figures show the plots of the percent remaining (% of initial) of the clindamycin analog versus time. The percent of initial is obtained by normalizing the concentration at each time point to the initial concentration.

Series [4] has as its system P. acnes ATCC 1127. The experiment in a line: MIC against P. acnes ATCC 1127. The format is cell-based, Propionibacterium acnes. To be noted: Cutibacterium acnes, ATCC1127. The protocol: as §1
Series [5] deals with S. aureus ATCC 6538. The experiment in a line: MIC against S. aureus ATCC 6538. The format is cell-based. The conditions noted are these: Staphylococcus aureus, ATCC6538. The protocol: as §1
Where [6] appears, read: Staphylococcus aureus, ATCC29213, read-out: MIC.
Setting [7] is: Cutibacterium acnes, ATCC11827, read-out: MIC.

Converted amounts (≈) assume the structure as drawn. Like-named read-outs stand apart in the source and are kept apart here.

For `CCCC1CC(C(=O)NC(C(C)Cl)C2OC([S+](C)[O-])C(O)C(O)C2O)N(C)C1.Cl` (centres unmarked) [CSO B HCl], the values for the MIC in series [1] and in series [2] were 2 µg/mL and 0.5 µg/mL, respectively.

Turning to `CCCC1CC(C(=O)NC(C(C)Cl)C2OC([S+](C)[O-])C(O)C(O)C2O)N(C)C1.O=C(O)CCC(=O)O` (centres unmarked) [CSO A succinate], the MIC in series [1] and in series [2] was 16 µg/mL in each case.

On to `CCCC1CC(C(=O)NC(C(C)Cl)C2OC([S+](C)[O-])C(O)C(O)C2O)N(C)C1.O=C(O)CC(O)(CC(=O)O)C(=O)O` (centres unmarked) [CSO B citrate], for which the minimal inhibitory concentration (MIC) turned out to be 2 µg/mL in series [1] and 0.5 µg/mL in series [2].

Turning to `CCC[C@@H]1CC(C(=O)NC(C(C)Cl)[C@H]2O[C@H](S(C)(=O)=O)[C@H](O)[C@@H](O)[C@H]2O)N(C)C1` (some centres unmarked) [CSO2, Clindamycin sulfone], the “remained in the solution (% of initial)” value in series [3] (after 8 weeks of storage) is given as “about 85%”. In addition, in series [3] (after 12 weeks of storage), the “remaining in the samples (% of initial)” value is reported as “about 70%”. Moreover, the MIC was 1 to 2 µg/mL (≈ 2.19 to 4.38 µM) in series [1] (setting [6]) and 0.5 to 1 µg/mL (≈ 1.09 to 2.19 µM) in series [2] (setting [7]).

`CC[C@H]1OC(=O)[C@H](C)[C@@H](O[C@H]2C[C@@](C)(OC)[C@@H](O)[C@H](C)O2)[C@H](C)[C@@H](O[C@@H]2O[C@H](C)C[C@H](N(C)C)[C@H]2O)[C@](C)(O)C[C@@H](C)C(=O)[C@H](C)[C@@H](O)[C@]1(C)O` [Erythromycin USP, Erythromycin, reference compound]: the MIC in series [4] is 1.6 µg/mL (≈ 2.18 µM); in series [1] (setting [6]) it was 0.25 to 0.5 µg/mL (≈ 0.341 to 0.681 µM); in series [2] (setting [7]) it was 0.062 µg/mL (≈ 0.0845 µM); in series [5], below 0.8 µg/mL.

With `CCCC1CC(C(=O)NC(C(C)Cl)C2OC([S+](C)[O-])C(O)C(O)C2O)N(C)C1.O=C(O)c1ccccc1` (centres unmarked) [CSO B benzoate], the minimum inhibitory concentration (MIC) in series [1] is 2 µg/mL; in series [2] it was 0.5 µg/mL.

For `CCCC1CC(C(=O)NC(C(C)Cl)C2OC([S+](C)[O-])C(O)C(O)C2O)N(C)C1.O=C(O)C=CC(=O)O` (centres unmarked) [CSO A maleate], the MIC in series [1] and in series [2] was 16 µg/mL throughout.

For the compound `CCCC1CC(C(=O)NC(C(C)Cl)C2OC(S(C)(=O)=O)C(O)C(O)C2O)N(C)C1.Cl` (centres unmarked) [CSO2 HCl], the MIC in series [1] came out at 1 µg/mL; in series [2] it was 0.5 µg/mL.

For `CCC[C@@H]1C[C@@H](C(=O)N[C@@H]([C@H]2O[C@H]([S+](C)[O-])[C@H](O)[C@@H](O)[C@H]2O)[C@H](C)Cl)N(C)C1.Cl` (some centres unmarked) [CSO A HCl], the minimum inhibitory concentration (MIC) turned out to be 16 µg/mL in series [1] and 8 µg/mL in series [2].

As to `CCC[C@@H]1C[C@@H](C(=O)N[C@@H]([C@H]2O[C@H](SC)[C@H](OP(=O)(O)O)[C@@H](O)[C@H]2O)[C@H](C)Cl)N(C)C1` [Clindamycin phosphate USP, Clindamycin phosphate, reference compound], the MIC in series [4] was 200 µg/mL; in series [1] (setting [6]), 16 to 32 µg/mL; in series [2] (setting [7]) it was 2 to 4 µg/mL; in series [5] it was 200 µg/mL.

On to `CCCC1CC(C(=O)NC(C(C)Cl)C2OC(S(C)(=O)=O)C(O)C(O)C2O)N(C)C1.O=S(=O)(O)O` (centres unmarked) [CSO2 sulfate], for which the MIC in series [1] came to 1 µg/mL; in series [2], 0.5 µg/mL.

Take `CCCC1CC(C(=O)NC(C(C)Cl)C2OC([S+](C)[O-])C(O)C(O)C2O)N(C)C1.O=C(O)C=CC(=O)O` (centres unmarked) [CSO B fumarate]: the results for the MIC in series [1] and in series [2] were 2 µg/mL and 0.5 µg/mL, respectively.

Consider `CCCC1CC(C(=O)NC(C(C)Cl)C2OC([S+](C)[O-])C(O)C(O)C2O)N(C)C1.O=C(O)C=CC(=O)O` (centres unmarked) [CSO A fumarate], for which the values for the MIC in series [1] and in series [2] were 16 µg/mL and 8 µg/mL, respectively.

The MIC is the smallest concentration in the dilution series that meets the test's criterion for growth inhibition.
